Structures can show the parent of a compound that is named as a salt.
target: GABAa receptor; assay: GABAa receptor activity: inhibition of 3H-RO15-1788 (3H-Flumazenil) binding to rat cortical tissue; details: 0.5 nM 3H-RO15-1788, 30 min at 4° C.
Procedure: The pharmaceutical utility of compounds of this invention are indicated by the following assay for GABAa receptor activity.
The assay is carried out as described in Thomas and Tallman (J. Bio. Chem. 156: 9838-9842, J. Neurosci. 3:433-440, 1983). Rat cortical tissue is dissected and homogenized in 25 volumes (w/v of 0.05M Tris HCl buffer (pH 7.4 at 4° C.). The tissue homogenate is centrifuged in the cold (4° C.) at 20,000×g for 20 minutes. The supernatant is decanted and the pellet is rehomogenized in the same volume of buffer and again centrifuged at 20,000×g. The supernatant is decanted and the pellet is frozen at -20° C. overnight. The pellet is then thawed and rehomogenized in 25 volume (original w/v) of buffer and the procedure is carried out twice. The pellet is finally resuspended in 50 volumes (w/v) of 0.05M Tris HCl buffer (pH 7.4 at […]).
Incubation contain 100 of tissue homogenate, […] of radioligand (0.5 nM ^3 H-RO15-1788 [^3 H-Flumazenil] specific activity 80 Ci/mmol), drug or blocker and buffer to a total volume of […]. Incubstion are carried for 30 min at 4° C. then are rapidly filtered through GFB filters to separate free and bound ligand. Filters are washed twice with fresh 0.05M Tris HCl buffer (pH 7.4 at 4° C.) and counted in a liquid scintillation counter. 1.0 mM diazepam is added to some tubes to determine nonspecific binding. Data are collected in triplicate determinations, averaged and % inhibition of total specific binding is calculated. Total Specific Binding=Total-Nonspecific. In some case, the amounts of unlabeled drugs is varied and total displacement curves of binding are carried. Data are converted to a form for the calculation of Ki and Hill Coefficient (nH).

How did the Ki turn out when `COc1ccc(-c2ncc3n2CN(C(=O)N2CCCCC2)c2ccccc2-3)cc1` [Compound 1, 3-(4-methoxyphenyl)-5,6-dihydro-6-[(1-piperidino)carbonyl]imidazo[1,5-c]quinazoline] was run?
The Ki was 6 nM.

How did the Ki turn out when `COc1ccc(-c2ncc3n2CN(C(=O)N(C)C)c2ccccc2-3)cc1` [Compound 2, 3-(4-Methoxyphenyl)-5,6-dihydro-6-[(N,N-dimethyl-amino)carbonyl]imidazo[1,5-c]quinazoline hydrochloride] was run?
The Ki was 4.7 nM.

How did the Ki turn out when `COc1ccc(-c2ncc3n2CN(C(=O)N2CCOCC2)c2ccccc2-3)cc1` [Compound 3, 3-(4-Methoxyphenyl)-5,6-dihydro-6-[(1-morpholino)-carbonyl]imidazo[1,5-c]quinazoline hydrochloride] was run?
Its Ki is 2.7 nM.

`COc1cccc(-c2ncc3n2CN(C(=O)N2CCCCC2)c2ccccc2-3)c1` [Compound 16, 3-(3-Methoxyphenyl)-5,6-dihydro-6-[(1-piperidino)-carbonyl]imidazo[1,5-]quinazoline hydrochloride] was tested. Which Ki did it give?
The Ki was 17 nM.

For `O=C(N1CCCCCC1)N1Cn2c(cnc2-c2ccccc2)-c2ccccc21` [Compound 18, 3-Phenyl-5,6-dihydro-6-[(1-hexamethyleneimino)-carbonyl]imidazo[1,5-c]quinazoline hydrochloride], which Ki is on record?
The Ki was 12 nM.

How did the Ki turn out when `COc1ccc(-c2ncc3n2CN(C(C)=O)c2ccccc2-3)cc1` [Compound 49, 3-(4-methoxyphenyl)-5,6-dihydro-6-acetylimidazo[1,5-c]-quinazoline] was run?
Its Ki is 101 nM.

Which Ki does the source give for `COc1ccc(-c2ncc3n2CN(C(=O)c2ccccc2)c2ccccc2-3)cc1` [Compound 53, 3-(4-Methoxyphenyl)-5,6-dihydro-6-benzoylimidazo-[1,5-c]quinazoline] here?
Its Ki is 7.8 nM.

With `COc1ccc(-c2ncc3n2CN(C(=O)c2ccccc2)c2ccccc2-3)c(F)c1` [Compound 72, 3-(2-Fluoro-4-methoxyphenyl)-5,6-dihydro-6-benzoyl-imidazo[1,5-c]quinazoline] as the compound, how does the Ki read?
Its Ki is 9.7 nM.

With `CCn1c(=O)n2c(-c3ccccc3F)ncc2c2ccccc21` [Compound 76, 3-(2-Fluorophenyl)-5,6-dihydro-5-oxo-6-ethyl-imidazo[1,5-c]quinazoline] as the compound, how does the Ki read?
Its Ki is 124 nM.

From US5792766A (priority 1996, dated 1998)
